The NIST ThermoML archive (doi:10.1021/je2012633)

Key:
[1] = 101 kPa, Liquid, Vibrating tube method
[2] = xn = mol fraction of the nth substance listed; conditions: 101 kPa, Liquid, Vibrating tube method

CCOS(=O)(=O)[O-].CCn1cc[n+](C)c1 [1-ethyl-3-methylimidazolium ethyl sulfate]
[1]
Conditions	mass density [kg/m3]
288.15 K	1245.3
298.15 K	1238.3
308.15 K	1231.6
318.15 K	1224.9

CCOS(=O)(=O)[O-].CCn1cc[n+](C)c1 [1-ethyl-3-methylimidazolium ethyl sulfate] + CCO
mass density [kg/m3], [2]
Conditions	288.15 K	298.15 K	308.15 K	318.15 K
x1 = 0.0494	864.9	856.6	848.1	839.7
x1 = 0.1233	943.6	935.6	927.6	919.5
x1 = 0.2469	1035.3	1027.6	1019.9	1012.3
x1 = 0.3485	1088.4	1080.9	1073.4	1066
x1 = 0.4727	1136.8	1129.5	1122.2	1115
x1 = 0.5667	1164.9	1157.7	1150.6	1143.5
x1 = 0.6483	1185.3	1178.2	1171.2	1164.2
x1 = 0.7421	1205.3	1198.3	1191.3	1184.4
x1 = 0.827	1220.5	1213.8	1206.8	1200
x1 = 0.9211	1234.8	1227.9	1221.1	1214.3
x1 = 1	1245.3	1238.3	1231.6	1224.9

CCOS(=O)(=O)[O-].CCn1cc[n+](C)c1 [1-ethyl-3-methylimidazolium ethyl sulfate] + O
mass density [kg/m3], [2]
Conditions	288.15 K	298.15 K	308.15 K	318.15 K
x1 = 0.0319	1064.5	1059.9	1054.4	1048.4
x1 = 0.07	1114.1	1108	1101.8	1095.1
x1 = 0.1022	1141.9	1135.3	1128.5	1121.5
x1 = 0.1961	1186.1	1178.9	1171.8	1164.6
x1 = 0.2988	1208.5	1201.4	1194.3	1187.2
x1 = 0.395	1220.4	1213.4	1206.3	1199.3
x1 = 0.4939	1228.4	1221.4	1214.4	1207.4
x1 = 0.5829	1233.3	1226.4	1219.4	1212.5
x1 = 0.6798	1237.1	1230.2	1223.4	1216.6
x1 = 0.7975	1240.8	1233.9	1227.1	1220.3
x1 = 0.8726	1242.6	1235.8	1229	1222.3
x1 = 1	1245.3	1238.3	1231.6	1224.9

CCCCCCCCOS(=O)(=O)[O-].CCn1cc[n+](C)c1 [1-ethyl-3-methylimidazolium octyl sulfate]
[1]
Conditions	mass density [kg/m3]
288.15 K	1100.7
298.15 K	1093.8
308.15 K	1087
318.15 K	1080.5

CCCCCCCCOS(=O)(=O)[O-].CCn1cc[n+](C)c1 [1-ethyl-3-methylimidazolium octyl sulfate] + CCO
mass density [kg/m3], [2]
Conditions	x1 = 0.098	x1 = 0.1901	x1 = 0.2985	x1 = 0.3955	x1 = 0.4964	x1 = 0.5975	x1 = 0.6844	x1 = 0.792	x1 = 0.9047	x1 = 1
288.15 K	906.4	964.1	1006.3	1031.6	1050.9	1065.6	1075.6	1085.7	1094.4	1100.7
298.15 K	898.5	956.5	998.9	1024.4	1043.9	1058.7	1068.8	1078.9	1087.5	1093.8
308.15 K	890.7	949	991.8	1017.4	1037	1051.9	1062.1	1072.3	1081	1087
318.15 K	882.8	941.4	984.4	1010.3	1030.1	1045.2	1055.4	1065.8	1074.4	1080.5

CCCCCCCCOS(=O)(=O)[O-].CCn1cc[n+](C)c1 [1-ethyl-3-methylimidazolium octyl sulfate] + O
mass density [kg/m3], [2]
Conditions	x1 = 0.0053	x1 = 0.1002	x1 = 0.3923	x1 = 0.5963	x1 = 0.7373	x1 = 0.7747	x1 = 0.8545	x1 = 0.9371	x1 = 1
298.15 K	1005.3	1060.6	1086.3	1090.5	1092.1	1092.4	1093	1093.5	1093.8
308.15 K	1001.8	1054	1079.6	1083.8	1085.5	1085.7	1086.4	1086.9	1087
318.15 K	997.3	1047.4	1072.9	1077.2	1079.1	1079.2	1079.9	1080.4	1080.5

CCCCCCOS(=O)(=O)[O-].CC[n+]1ccn(C)c1 [3-ethyl-1-methyl-1H-imidazolium hexyl sulfate]
[1]
Conditions	mass density [kg/m3]
288.15 K	1136.6
298.15 K	1129.6
308.15 K	1123.1
318.15 K	1116.6

CCCCCCOS(=O)(=O)[O-].CC[n+]1ccn(C)c1 [3-ethyl-1-methyl-1H-imidazolium hexyl sulfate] + CCO
mass density [kg/m3], [2]
Conditions	x1 = 0.0977	x1 = 0.2202	x1 = 0.3246	x1 = 0.4377	x1 = 0.4947	x1 = 0.6214	x1 = 0.7252	x1 = 0.7455	x1 = 0.9063	x1 = 1
288.15 K	911.2	990	1031.7	1063.2	1075.5	1097.3	1110.9	1113.2	1128.5	1136.6
298.15 K	903.4	982.4	1024.3	1056	1068.4	1090.4	1104.1	1106.4	1121.8	1129.6
308.15 K	895.3	974.9	1017.1	1048.9	1061.4	1083.5	1097.4	1099.7	1115.2	1123.1
318.15 K	887.4	967.4	1009.8	1042	1054.4	1076.8	1090.7	1093	1108.8	1116.6

CCCCCCOS(=O)(=O)[O-].CC[n+]1ccn(C)c1 [3-ethyl-1-methyl-1H-imidazolium hexyl sulfate] + O
mass density [kg/m3], [2]
Conditions	x1 = 0.0501	x1 = 0.0965	x1 = 0.2075	x1 = 0.3982	x1 = 0.582	x1 = 0.7243	x1 = 0.7976	x1 = 0.9346	x1 = 1
288.15 K	1061.4	1086.5	1111.4	1125.8	1131.2	1133.5	1134.5	1135.8	1136.6
298.15 K	1056	1080.2	1104.8	1119	1124.5	1126.8	1127.7	1129	1129.6
308.15 K	1050.2	1073.7	1097.8	1112.2	1117.8	1120.3	1121.2	1122.3	1123.1
318.15 K	1044.1	1066.9	1090.8	1105.4	1111.2	1113.8	1114.7	1115.8	1116.6

CCCCOS(=O)(=O)[O-].CC[n+]1ccn(C)c1 [3-ethyl-1-methylimidazolium butyl sulfate]
[1]
Conditions	mass density [kg/m3]
288.15 K	1182.5
298.15 K	1175.7
308.15 K	1169
318.15 K	1162.4

CCCCOS(=O)(=O)[O-].CC[n+]1ccn(C)c1 [3-ethyl-1-methylimidazolium butyl sulfate] + CCO
mass density [kg/m3], [2]
Conditions	288.15 K	298.15 K	308.15 K	318.15 K
x1 = 0.0498	864.5	856.2	847.9	839.5
x1 = 0.0989	915.1	907.1	898.9	890.9
x1 = 0.1938	987	979.3	971.6	963.8
x1 = 0.2904	1037.4	1030	1022.4	1014.8
x1 = 0.3812	1072.1	1064.8	1057.6	1050.4
x1 = 0.4691	1098.2	1091	1083.9	1076.9
x1 = 0.4993	1105.9	1098.8	1091.1	1083.7
x1 = 0.5699	1122	1114.9	1107.9	1101
x1 = 0.6866	1143.7	1136.7	1129.7	1122.8
x1 = 0.7858	1158.4	1151.6	1144.7	1138
x1 = 0.8794	1169.9	1163.1	1156.3	1149.6
x1 = 1	1182.5	1175.7	1169	1162.4

CCCCOS(=O)(=O)[O-].CC[n+]1ccn(C)c1 [3-ethyl-1-methylimidazolium butyl sulfate] + O
mass density [kg/m3], [2]
Conditions	288.15 K	298.15 K	308.15 K	318.15 K
x1 = 0.0526	1081	1075.8	1069.6	1063.2
x1 = 0.0987	1114.3	1107.5	1100.5	1093.4
x1 = 0.2007	1146.1	1139.1	1131.9	1124.7
x1 = 0.2973	1159.3	1152.3	1145.3	1138.3
x1 = 0.3957	1167.2	1160.2	1153.2	1146.3
x1 = 0.4866	1171.7	1164.8	1158	1151.1
x1 = 0.5868	1175	1168.4	1161.5	1154.7
x1 = 0.6909	1177.9	1171.1	1164.3	1157.6
x1 = 0.7872	1179.6	1172.9	1166.2	1159.5
x1 = 0.8922	1181.4	1174.5	1167.9	1161.2
x1 = 0.9416	1181.8	1175	1168.3	1161.7
x1 = 1	1182.5	1175.7	1169	1162.4

CCO [ethanol]
[1]
Conditions	mass density [kg/m3]
288.15 K	794.4
298.15 K	785.8
308.15 K	777.1
318.15 K	768.3

CCO [ethanol] + CCOS(=O)(=O)[O-].CCn1cc[n+](C)c1
[2], x2 = 0
Conditions	mass density [kg/m3]
288.15 K	794.4
298.15 K	785.8
308.15 K	777.1
318.15 K	768.3

O [water] + CCCCCCOS(=O)(=O)[O-].CC[n+]1ccn(C)c1
Conditions	mass density [kg/m3]
[2], 308.15 K, x2 = 0	994.1

O [water] + CCOS(=O)(=O)[O-].CCn1cc[n+](C)c1
Conditions	mass density [kg/m3]
[2], 308.15 K, x2 = 0	994.1
